Legend:
Type in all cases: functional, cell-based
[1] = molecular target: T1, ATP-dependent translocase ABCB1 (Homo sapiens, UniProt P08183); assay: TP_TRANSPORTER: cell accumulation of daunomycin in MDA435/LCC6MDR1 cells
[2] = molecular target: T1, ATP-dependent translocase ABCB1; assay: TP_TRANSPORTER: increase in Daunomycin intracellular accumulation (Daunomycin: 0.05 uM, BiochaninA: 50 uM) in MDA435/[…] cell
[3] = molecular target: T1, ATP-dependent translocase ABCB1; assay: TP_TRANSPORTER: increase in Daunomycin intracellular accumulation (Daunomycin: 0.05 uM, Silymarin: 50 uM) in MDA435/LCC6 MDR1 cells; conditions: mda-mb-435/lcc6 mdr1, 50 µM
[4] = molecular target: T1, ATP-dependent translocase ABCB1; assay: TP_TRANSPORTER: increase in Daunomycin intracellular accumulation (Daunomycin: 0.05 uM, Morin: 50 uM) in MDA435/[…] cells

T1 sequence (P08183 whole entry): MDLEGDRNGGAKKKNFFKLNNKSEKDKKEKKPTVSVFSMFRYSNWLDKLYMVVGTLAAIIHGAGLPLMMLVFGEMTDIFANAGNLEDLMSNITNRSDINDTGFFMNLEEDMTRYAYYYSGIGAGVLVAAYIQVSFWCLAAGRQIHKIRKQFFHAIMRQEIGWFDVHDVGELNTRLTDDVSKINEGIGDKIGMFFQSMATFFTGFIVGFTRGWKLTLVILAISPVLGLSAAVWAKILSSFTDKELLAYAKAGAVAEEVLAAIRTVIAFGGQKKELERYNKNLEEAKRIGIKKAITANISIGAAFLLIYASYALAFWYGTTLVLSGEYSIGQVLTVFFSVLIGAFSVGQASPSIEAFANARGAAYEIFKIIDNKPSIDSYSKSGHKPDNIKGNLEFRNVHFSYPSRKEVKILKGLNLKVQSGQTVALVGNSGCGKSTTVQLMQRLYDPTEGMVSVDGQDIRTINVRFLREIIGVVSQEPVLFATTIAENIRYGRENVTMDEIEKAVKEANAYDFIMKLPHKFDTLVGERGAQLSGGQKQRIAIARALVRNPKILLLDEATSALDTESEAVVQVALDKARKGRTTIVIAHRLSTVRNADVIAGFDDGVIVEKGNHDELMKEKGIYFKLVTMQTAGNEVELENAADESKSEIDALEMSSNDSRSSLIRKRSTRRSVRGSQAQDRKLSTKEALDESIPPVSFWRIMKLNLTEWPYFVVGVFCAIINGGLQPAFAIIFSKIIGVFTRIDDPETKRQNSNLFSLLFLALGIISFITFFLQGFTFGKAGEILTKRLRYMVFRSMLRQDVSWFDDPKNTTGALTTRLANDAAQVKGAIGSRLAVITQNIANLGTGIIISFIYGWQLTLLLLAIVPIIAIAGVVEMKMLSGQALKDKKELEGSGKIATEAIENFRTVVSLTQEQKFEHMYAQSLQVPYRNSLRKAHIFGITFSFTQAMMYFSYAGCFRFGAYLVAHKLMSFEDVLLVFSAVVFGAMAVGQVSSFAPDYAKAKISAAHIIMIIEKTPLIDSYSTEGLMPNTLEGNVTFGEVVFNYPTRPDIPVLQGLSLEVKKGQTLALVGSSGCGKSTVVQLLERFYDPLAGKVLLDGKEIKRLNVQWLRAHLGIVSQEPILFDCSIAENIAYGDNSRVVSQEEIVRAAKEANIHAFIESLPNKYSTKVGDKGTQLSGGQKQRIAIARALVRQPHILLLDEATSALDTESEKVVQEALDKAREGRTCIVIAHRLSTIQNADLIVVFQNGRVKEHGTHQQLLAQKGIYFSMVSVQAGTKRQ

Compound | Activity [1] | Activity [2] | Activity [3] | Activity [4]
COc1ccc(-c2coc3cc(O)cc(O)c3c2=O)cc1 [BIOCHANIN] | inhibitor [+] | inhibitor [(at a rough estimate) 645 % of control] |  | 
COc1ccc(CCN(C)CCCC(C#N)(c2ccc(OC)c(OC)c2)C(C)C)cc1OC (stereo not drawn) [VERAPAMIL] | inhibitor [+] |  |  | 
SILYMARIN | inhibitor [+] |  | inhibitor [(at a rough estimate) 420 % of control] | 
O=c1c(O)c(-c2ccc(O)cc2O)oc2cc(O)cc(O)c12 [MORIN] | inhibitor [+] |  |  | inhibitor [(at a rough estimate) 585 % of control]
O=C(CCc1ccc(O)cc1)c1c(O)cc(O)cc1O [PHLORETIN] | inhibitor [+] |  |  | 
